Test results from patent publication US20060094741A1, “Remedies for neuropathic pain and model animals of neuropathic pain” (Toray Industries, Inc., a corporation of Japan, priority 1999, published 2006).
Entries after “also recorded” stand apart in the source; their conditions may differ.

Columns and labels:
[1] = tested on: pain-related behavior induced by intrathecal administration of Compound 1; test: Inhibition of tentative responses for nociception (scratching, biting, licking) induced by intrathecal Compound 1; type: in vivo, mouse
Method: (§1) Scratching, biting, and licking behavior was regarded as an index of tentative responses for nociception, and the duration of such behavior was measured for 5 minutes from 5 minutes after the administration of Compound 1 in a transparent acrylic cage (20×13×10 cm) in a single-blind manner.
(§2) Mice (ddY; weighing 22 to 25 g when the experiment was started) were kept in a plastic cage at a constant temperature and humidity (22±1° C., 55±5%) under a 12-hour light-dark cycle. The mice had free access to food and water.
(§3) Compound 1 was dissolved in a physiological saline solution (Ohtsuka Pharmaceutical Co., Ltd.) and was intrathecally administered to the mice without anesthetization. The intrathecal dose of the drug solution per mouse was 4 μl, and a 30 gauge needle and a 25 μl Hamilton syringe were used according to the method disclosed by Hylden and Wilcox (J. L. K. Hylden & G. L. Wilcox, Eur. J. Pharmacol., 67: 313-316, 1980).
(−)-17cyclopropyl-3,1 4β-dihydroxy-4,5α-epoxy-6β-[N-methyl-trans-3-(3-furyl) acrylamide] morphinan hydrochloride (Compound 2) (H. Nagase et al. Chem. Pharm. Bull. 46, 366, 1998), of which the formula is shown below, [drawing 14] as a selective opioid κ-receptor agonist compound, was intrathecally administered to the mice simultaneously with Compound 1, and the effect thereof on neuropathic pain was evaluated based on tentative responses for nociception, such as scratching, biting, and licking behavior, as indexes. The duration of such behavior was measured for 5 minutes from 5 minutes after the administration of the simultaneous administration of Compound 2 and Compound 1 (15 μg/mouse) in a transparent acrylic cage (20×13×10 cm) in a single-blind manner. Additionally, Compound 2 was dissolved in a physiological saline solution for use.
In order to determine the effect of the drug on neuropathic pain, tentative responses for nociception were tested in the case in which a low dose of 1 or 3 nmol/mouse of Compound 2 was intrathecally administered simultaneously with Compound 1 in a manner similar to that of Example 2 and in the case in which Compound 2 was subcutaneously administered so that systemic exposure to the drug was evaluated. […] Since the effectiveness of Compound 2 has also been shown in systemic exposure, it has become clear that Compound 2 is effective even if the drug is not administered topically, that is, even if the drug is administered in various dosage forms which are pharmacologically acceptable.

mice (ddY) = test: Production of the neuropathic pain animal model: scratching, biting and licking behavior after intrathecal Compound 1; type: in vivo; conditions: 7.5 μg/mouse or more, measured for 5 minutes from 5 minutes after administration
Method: as §2
as §3, with “(+)-4a-(3-hydroxyphenyl)-2-methyl-1,2,3,4,4a, 5,12,12a-octahydrotrans-quinolino [2,3-g]isoquinoline (Compound 1)” for “Compound 1”
as §1

[2] = tested on: sciatic nerve ligation mouse model; test: Sciatic nerve ligation mouse model, allodynia/hyperalgesia by von Frey hairs; type: in vivo; conditions: subcutaneous
Description: The action of Compound 2 in inhibiting neuropathic pain was investigated using another, widely known neuropathic pain model. That is, the action of Compound 2 in a sciatic nerve ligation mouse model was investigated using a method in which the method disclosed by A. B. Malmberg and A. I. Basbaum (Pain, 76, 215-222, 1998) et al. was slightly modified. In order to measure allodynia or hyperalgesia generally observed in neuropathic pain, two von Frey hairs (0.17 and 1.48 g) having different strengths were used. Four weeks following the surgery, the mice were placed in an acrylic cage (90×100×300 mm) and allowed to acclimate for a minimum of 30 minutes. The von Frey hairs were applied perpendicularly to the soles of the hind feet so as to cause slight bending for a duration of approximately 3 seconds. This was repeated 6 times at intervals of several seconds. The reaction of the mouse was given a score in the manner described below.
2: Immediate escape reaction and flinching of hind paw
The reactions of the surgically operated foot and the opposite foot as control were measured before the administration of the drug, and 30 minutes and 2 hours after the administration of the drug. The difference between the score of the surgically operated foot and the score of the control foot was evaluated as allodynia or hyperalgesia. […]

[3] = tested on: pain associated with zosteriform skin lesions; test: Herpetic pain model, allodynia/hyperalgesia associated with zosteriform skin lesions; type: in vivo; conditions: orally administered; thirty minutes after the administration
Description: The therapeutic effect of Compound 2 on pain associated with zoster classified under neuropathic pain was investigated. The evaluation of the therapeutic effect was made using an animal model produced according to a method disclosed in Pain, 86, 95-101, 2000.

[4] = simultaneous intrathecal administration with 15 μg/mouse of Compound 1

SMILES: NCC(CC(=O)O)c1ccc(Cl)cc1 (stereo not shown) [Baclofen, reference compound]
- inhibition of tentative responses for nociception induced by Compound 1 [1, 4]: inhibited dose-dependently

SMILES: CN1CC[C@@]2(c3cccc(O)c3)Cc3nc4ccccc4cc3C[C@@H]2C1 [Compound 1, (+)-4a-(3-hydroxyphenyl)-2-methyl-1,2,3,4,4a, 5,12,12a-octahydrotrans-quinolino [2,3-g]isoquinoline]
- tentative responses for nociception (duration of scratching, biting, and licking behavior) (mice (ddY)): increased significantly and dose-dependently
- tentative responses for nociception (duration of scratching, biting, and licking behavior) (mice (ddY); listed as Compound I): increases dose-dependently

SMILES: CN(C(=O)/C=C/c1ccoc1)[C@@H]1CC[C@@]2(O)[C@H]3Cc4ccc(O)c5c4[C@@]2(CCN3CC2CC2)[C@H]1O5.Cl [Compound 2, (−)-17cyclopropyl-3,1 4β-dihydroxy-4,5α-epoxy-6β-[N-methyl-trans-3-(3-furyl)acrylamide] morphinan hydrochloride]
- inhibition of tentative responses for nociception induced by Compound 1 ([1]; 10 nmol/mouse intrathecal, simultaneously with Compound 1 (15 μg/mouse), compared to physiological saline solution-treated group): significantly inhibited
- inhibition of tentative responses for nociception induced by Compound 1 ([1]; low dose of 1 or 3 nmol/mouse intrathecal, simultaneously with Compound 1, hydrochloride): dose-dependent inhibitory action; also recorded: dose-dependently inhibited
- inhibition of tentative responses for nociception induced by Compound 1 ([1]; subcutaneously administered (systemic exposure), hydrochloride): dose-dependent inhibitory action; also recorded: dose-dependently inhibited
- allodynia or hyperalgesia (difference between score of surgically operated foot and control foot) ([2]; after 2 hours): the effect of the drug disappeared
- allodynia or hyperalgesia (difference between score of surgically operated foot and control foot) ([2]; thirty minutes after the administration, von Frey hairs 0.17 and 1.48 g): inhibited allodynia or hyperalgesia
- allodynia or hyperalgesia associated with zosteriform skin lesions [3]: dose-dependently inhibited allodynia or hyperalgesia

SMILES: CN1CC[C@]23c4c5ccc(O)c4O[C@H]2[C@@H](O)C=C[C@H]3[C@H]1C5 [morphine, reference compound]
- inhibition of tentative responses for nociception induced by Compound 1 [1, 4]: not inhibited at all
